The source of these data is patent US11834516B2, “Tumor-specific polypeptide and use thereof” (GENOIMMUNE THERAPEUTICS CO., LTD., priority 2016, dated 2023).

For experiment [1], the system named is CD8+ T cells. As to the kind of experiment: IFN-γ ELISPOTs, activation of CD8+ T cell immune response. It is filed as cell-based, human. Conditions: for Number of spots in the mutated polypeptide group / Number of spots in the wild type polypeptide group: CD8+ T cells primed with DCs loaded with the polypeptide, 20 hours; for Number of spots in the mutated polypeptide group: T2 cells loaded with mutated polypeptide; for Number of spots in the wild type polypeptide group: T2 cells loaded with wild type polypeptide KLMGIVNKV; for Conclusion (immunogenicity): IFN-γ ELISPOTs; for Folds (test/wild type): ratio of spot numbers, >2 = immunogenic. The text has this:
The principle of ELISPOTs detection method is that CD8+ T cells can specifically recognize the complex of HLA-A0201 and a polypeptide, and with different polypeptide sequence, the T cell population recognizing the complex of HLA-A0201 and the polypeptide is also different. As T2 cells express HLA-A0201, CD8+ T cells can specifically recognize T2 cells loaded with mutated polypeptides, but cannot recognize T2 cells loaded with wild-type polypeptide. After specifically recognizing the complex of HLA-A0201 and the polypeptide, the polypeptide-specific CD8+ T cells are able to reactivate and secrete IFN-γ. The IFN-γ secreted by activation of CD8+ T cells is captured by a biotin-labeled secondary antibody. It is then bound to alkaline phosphatase or peroxide horseradish oxidase-labeled streptavidin. Spots are formed by the color development of the substrate. The number of spots represents the number of cells that are activated to secrete IFN-γ.
The cells co-cultured in Example 4 and T2 cells loaded with the mutated polypeptides or the wild-type polypeptide were added into human IFN-γ ELISPOTs plates for culture and detection. The spots formed by the ELISPOT test were finally counted. The requirement for the test polypeptide to be immunogenic is as follows: the number of spots (test polypeptide)/the number of spots (wild type polypeptide)>2, that is, the number of spots formed by the test polypeptide is more than twice the number of spots formed by the wild type polypeptide.
The cells co-cultured in Example 4 and T2 cells loaded with the mutated polypeptide […] (SEQ ID NO: 2) and its variable formats (SEQ ID NOs: 2-5) and the wild type polypeptide […] (SEQ ID NO: 6) were added into human IFN-γ ELISPOTs plates for culture, and subjected to ELISPOTs test (Mabtech, Cat. No. 3420-4APW-2) 20 hours later.

For experiment [2], the system named is CD8+ T cells. As to the kind of experiment: Cell expansion of CD8+ T cells stimulated by polypeptide-loaded DCs in vitro. It is filed as cell-based, human. Conditions: day 10 of co-culture of CD8+ T cells with polypeptide-loaded DCs; 2.5 × 10^6 cells before culture. Here is the method:
Dendritic cells (DCs) derived from monocytes were used as antigen presenting cells (APCs) to induce CTL responses against peptides presented on HLA. 2×10^8 peripheral blood mononuclear cells (PBMC) were isolated from 100 ml of peripheral blood of healthy volunteers with positive HLA-A0201 subtype using Ficoll lymphocyte separation solution (Cat. No. 17-1440-02, GE Healthcare). Mononuclear cells were obtained by adherent culture (3 hours), and CD8+ T cells in PBMC cells were screened with CD8 magnetic beads. GM-CSF (1000 U/ml) and IL-4 (1000 U/ml) were used to induce adherent monocytes into immature DCs, then IFN-γ (100 U/ml), LPS (10 ng/ml), and the polypeptides of the present invention as set forth in SEQ ID NOs: 2-5 were used to induce adherent cells into mature DC cells. The mature DC cells loaded with the polypeptides were irradiated (dose of 25 Gy) and co-cultured with CD8+ T cells of the volunteers (DC density was 5×10^5 cells/ml, CD8+ T cell density was 2×10^6 cells/ml, both of DCs and CD8+ T cells were mixed in equal volume and added to the well plate, i.e., co-cultured) with IL-21 added, then IL-2 and IL-7 were replenished after 3 days, and then IL-2 and IL-7 were replenished once on day 5 and 7, respectively. Co-cultured cells (co-cultured CD8+ T cells were activated to polypeptide-specific CD8+ T cells) were counted on day 10.

The next experiment addresses T1, HLA-A0201 (Homo sapiens, UniProt P04439, D140Y/D185E/D98H/E176V/E277Q/G131W/G231S/I119V/I121R/I166T/I218V/L300P/L318F/N151K/N90K/P208A/P217A/Q86G/Q94H/R138H/R169H/T345S).
T1 construct: T2 cell expresses HLA-A0201; host or cells: T2 cells
The experiment can be described thus: T2 affinity verification of the polypeptides for HLA-A0201 by flow cytometry. It is filed as binding. The conditions noted are these: T2 affinity test. Here is the method:
2 duplicate wells per group were used. […] The cells were collected by centrifugation at 200 g for 5 minutes. After the collected cells were washed twice with PBS (Cat. No. 10010-031, GIBCO), the cells were directly incubated with anti-HLA-A 0201 FITC monoclonal antibody and incubated at 4 C for 30 minutes. The mean fluorescence intensity (MFI) was then detected and analyzed by flow cytometry (BD FACSJazz™) and its software, as shown in FIG. 1.
The fluorescence index (FI) is calculated using the following formula: FI=[Mean Fluorescence Intensity (MFI)sample−MFIbackground]/MFIbackground, wherein the MFIbackground represents the value without the polypeptide.
In general terms: A flow cytometer gives signals particle by particle.

Experiment [3] concerns H2087-KLMGIVYKV subcutaneous tumor. As to the kind of experiment: Lentivirus (nucleic acid) transfected DC vaccine in H2087-[…] subcutaneous tumor model. The format is in vivo, NOD/SCID mice. The conditions noted are these: lentivirus-infected DC, intradermal, 2 weekly injections. The text has this:
Using automated DNA synthesizer, nucleotide sequences were synthesized by ligating nucleotides one by one based on a known sequence utilizing solid phase phosphite amide method. […] The lentiviral plasmids pHBLV-Puro containing the wild type polypeptide or the mutated polypeptides were separately constructed and named as pHBLV-Puro-[…], pHBLV-Puro-[…], pHBLV-Puro-[…], pHBLV-Puro-[…], pHBLV-Puro-[…], respectively. Thereafter, the five lentiviral plasmids were co-transfected into T293 cells with the pSPAX2 and pMD2G helper plasmids, respectively, and were packaged into lentiviruses containing the wild type polypeptide or the mutated polypeptides.
The established human lung (non-small cell) adenocarcinoma cell line H2087-[…] cells were cultured in DMEM medium supplemented with 10% fetal calf serum, 100 U/mL penicillin and streptomycin in an incubator at 37° C., 5% CO2. […] After appropriate dilution, 40 μl of the cell suspension was stained with 10 μl of 0.4% Trypan Blue and microscopically counted to prepare a tumor cell suspension at a concentration of 1×10^8 cells/ml. […] Using the vernier caliper, the tumor long diameter a and the short diameter b were measured every 2-3 days, and the tumor size was calculated as follows: tumor size=a*b*b/2. […]

A further experiment deals with T2 cells. The experiment can be described thus: LDH release assay, specific killing activity of CD8+ T cells. The format is cell-based, human. Details: concentration or dose not given beside the values. Conditions: T cells activated by the labelled polypeptide, 4 hours. As to the method:
The following experiment was carried out according to the instructions of Pierce™ LDH Cytotoxicity Assay Kit (Thermo, Cat. No. 88953). The co-cultured cells in Example 4 were co-cultured with T2 cells loaded with mutated polypeptides or wild-type polypeptide or T2 cells without any loaded polypeptides. In the experiment, the maximum release well, the volume correction well, the medium control well, the spontaneous release well, the control of different ratios of effective cells to target cells (the ratio of the number of T cells to the T2 cell) and the like were set, and three duplicate wells were set in each group, and after 4 hours, 50 ul of the supernatant of the co-cultured cells was collected and added to 50 ul of LDH substrate mixture to catalyze the reaction of LDH substrate. After 30 minutes, 50 ul of reaction stop solution was added and read the 490 nm wavelength and the reference wavelength of 680 nm, and the killing activity of target cells against T2 cells were calculated based on the control wells.
The formula for calculating the killing activity is: Killing efficiency (%)=(test well−spontaneous release of effector cell−spontaneous release of target cell+medium well)/(maximum release of target cell−volume correction well−spontaneous release of target cell+medium well)×100%
(LDH leaks from cells whose membrane has failed.)

Setting [4] is: target T2 loaded with KLMGIVYKV (SEQ ID NO: 2).
Where [5] appears, read: target T2 loaded with wild type KLMGIVNKV (SEQ ID NO: 6).

KMMGIVYKV: in the experiment on CD8+ T cells [1], the “Number of spots in the mutated polypeptide group” value is on record as 323, the “Number of spots in the wild type polypeptide group” value is reported as 37, the “Conclusion (immunogenicity)” value was “immunogenic” and the “Folds (test/wild type)” value was 8.73. Moreover, the “Total number of cells in the well after culture” value (“Total number of cells” for short) in the experiment on CD8+ T cells [2] was 1.37 × 10^7. Also, the “affinity for HLA-A0201” value at HLA-A0201 is “enhanced affinity for HLA-A0201”.

As to “KLMGIVNKV [wild-type peptide fragment, amino acids 130-138 of the unmutated Twist neighbor protein]”, in experiment [3], the tumor suppressing effect result is “no effect on the tumor”.

KMMGIVYKL: in the experiment on CD8+ T cells [1], the “Number of spots in the mutated polypeptide group” value came to 328, the “Number of spots in the wild type polypeptide group” value came to 29, the “Conclusion (immunogenicity)” value is “immunogenic” and the “Folds (test/wild type)” value came out at 11.31. For the same sequence, in the experiment with CD8+ T cells [2], the “Total number of cells” value is 1.46 × 10^7. In the experiment on T2 cells (setting [4]), the “Killing efficiency, ratio of effective cells to target cells (1:1)” value (shortened to “Killing efficiency, ratio … (1:1)”) is listed as 8.29% and the “Killing efficiency, ratio of effective cells to target cells (10:1)” value (shortened to “Killing efficiency, ratio … (10:1)”) worked out at 42.26%. Besides, in the experiment on T2 cells (setting [5]), the “Killing efficiency, ratio … (1:1)” value is recorded as 3.25% and the “Killing efficiency, ratio … (10:1)” value came to 6.23%. The “affinity for HLA-A0201” value on HLA-A0201 was “enhanced affinity for HLA-A0201”.

Turning to KLMGIVYKL, in the experiment on CD8+ T cells [1], the “Number of spots in the mutated polypeptide group” value was 335, the “Number of spots in the wild type polypeptide group” value is given as 40, the “Conclusion (immunogenicity)” value is “immunogenic” and the “Folds (test/wild type)” value came to 8.34. Also, in the experiment on CD8+ T cells [2], the “Total number of cells” value is 1.63 × 10^7. In the experiment with T2 cells (setting [4]), the “Killing efficiency, ratio … (1:1)” value came to 8.76% and the “Killing efficiency, ratio … (10:1)” value amounted to 44.52%. Moreover, in the experiment with T2 cells (setting [5]), the “Killing efficiency, ratio … (1:1)” value is on record as 2.17% and the “Killing efficiency, ratio … (10:1)” value came to 4.63%. In addition, at HLA-A0201, the “affinity for HLA-A0201” value is listed as “enhanced affinity for HLA-A0201”.

As to “KLMGIVYKV [9-amino-acid mutated TWIST Neighbor protein peptide (N136Y)]”, in the experiment on CD8+ T cells [1], the “Number of spots in the mutated polypeptide group” value was found to be 316, the “Number of spots in the wild type polypeptide group” value is reported as 31, the “Conclusion (immunogenicity)” value is “immunogenic” and the “Folds (test/wild type)” value came out at 10.01. Moreover, in the experiment on CD8+ T cells [2], the “Total number of cells” value is listed as 1.32 × 10^7. In addition, in the experiment with T2 cells (setting [4]), the “Killing efficiency, ratio … (1:1)” value is 7.69% and the “Killing efficiency, ratio … (10:1)” value was determined as 38.29%. Besides, in the experiment on T2 cells (setting [5]), the “Killing efficiency, ratio … (1:1)” value is 2.33% and the “Killing efficiency, ratio … (10:1)” value was found to be 5.03%. The “affinity for HLA-A0201” value at HLA-A0201 is “does have a high affinity for HLA-A0201”.
